Experimental data reported in paper PMC11672292, “Discovery of Balasubramide Derivative with Tissue‐Specific Anti‐Inflammatory Activity Against Acute Lung Injury by Targeting VDAC1” (Advanced Science, 2024).

Tests used:
[1] = target: T1, recombinant human VDAC1 protein (rhVDAC1) (Homo sapiens, UniProt P21796); assay: Surface plasmon resonance (SPR); assay type: binding
T1 construct: purchased Atagenix, China
Procedure: To investigate the interaction of (+)3C‐20 and recombinant human VDAC1 protein (rhVDAC1), SPR experiments were performed. The overall experimental procedures were based on previous reports and had been improved with some modifications.^[ [35] ^] Briefly, 10 µM (+)3C‐20 was printed on the 3D photo‐crosslinking chip via the Biodot AD1520 chip array printer through a C─H covalent bond connection, and DMSO was conducted as a negative control at the same time. Following the vacuum‐dying and photo‐crosslinking reaction of the chip, the surface of the chip was flowed through with different concentrations (10, 40, 160, 640, 2560 nmol L^−1) of rhVDAC1 protein in PBST at 0.5 µL s^−1 for 600 s. Then, the proteins were dissociated from the surface of the chip in Glycine‐HCl (pH 2.0) at 2 µL s^−1 for 360 s. The binding signals (RU) were detected dynamically using Berthold bScreen LB 991. The RU responses of (+)3C‐20 with rhVDAC1 protein were recorded and ranked to determine the interaction intensity level, and the binding curve and affinity data were calculated by the system according to the Langmuir binding model.

BMDMs = assay: NLRP3 inflammasome-induced pyroptosis, LDH release; assay type: cell-based, mouse; conditions: 10 µM, LPS plus ATP, Nigericin or MSU, compared with parent compound (+)3J
Procedure: According to previous reports,^[ [65] ^] NLRP3 inflammasome was activated in BMDMs primed with LPS (100 ng mL^−1) for 3 h, and the inflammasome was further assembled using ATP (5 mM, A6419, Sigma–Aldrich, USA) for 45 min, or Nigericin ([…], T3092, TargetMol, USA) for 1 h, or Monosodium Urate Crystal (MSU, 600 µg mL^−1, T41242, TargetMol, USA) for 6 h. To investigate the effect of compounds in NLRP3 inflammasome activation, the cells pretreated with compounds were stimulated with LPS for 3 h and followed by stimulation with ATP for another 45 min, or nigericin for another 1 h, or MSU for another 6 h to activate NLRP3 inflammasome.
Cell culture supernatants were collected and centrifuged to remove cell debris at 800 rpm for 5 min. LDH measurement was performed with an LDH cytotoxicity assay kit (C0017, Beyotime, China) according to the manufacture's instructions. Data were plotted normalizing the OD490 value of the model group as 100%.

mice = assay: Acute toxicity (LD50, sequential method), single intravenous injection; conditions: i.v.
Text: To test the safety of (+)3C‐20 in mice, as previously reported,^[ [31] ^] we estimated the acute toxicity of (+)3C‐20 in mice using a sequential method.

T1 sequence (P21796 whole entry): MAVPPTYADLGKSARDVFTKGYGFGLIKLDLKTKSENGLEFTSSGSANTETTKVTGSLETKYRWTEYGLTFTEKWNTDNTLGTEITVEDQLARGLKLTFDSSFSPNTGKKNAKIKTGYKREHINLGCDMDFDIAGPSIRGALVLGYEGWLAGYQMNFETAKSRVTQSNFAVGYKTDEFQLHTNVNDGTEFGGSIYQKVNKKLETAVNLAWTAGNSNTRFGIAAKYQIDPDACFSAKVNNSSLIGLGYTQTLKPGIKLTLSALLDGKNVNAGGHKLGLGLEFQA

Compound: O=C(CCc1ccc(C(F)(F)F)cc1)O[C@@H]1C(=O)NCCc2c([nH]c3ccccc23)[C@H]1c1ccc(C(F)(F)F)cc1 [(+)3C-20]
- Kd ([1]; hVDAC1, printed in picture of Figure 5G): 3.95 µM
- Kd ([1]; rhVDAC1): ~3.95 µM
- NLRP3 inflammasome activators-stimulated cell death (membrane blebbing, LDH release) (BMDMs): significantly decreased
- Mortality (mice; dosage 141.42 mg/kg): 0
- Mortality (mice; dosage 168.18 mg/kg): 20
- Mortality (mice; dosage 200.00 mg/kg): 83.33
- Mortality (mice; dosage 237.84 mg/kg): 100
